Patent publication US6867320B2, “Substituted phenylalkanoic acid derivatives and use thereof” (Asahi Kasei Pharma Corporation, priority 2002, dated 2005)

Experiments:
[1] = tested on: PGE2 production from IL-1β-stimulated MG-63 cells; assay: Suppressing action on PGE2 production from IL-1β-stimulated MG-63 cells; format: cell-based; conditions: Homo sapiens, IL-1β 1 ng/ml, 18 hours, read-out: PGE2 production suppression ratio
Outline: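 Human osteosarcoma MG-63 cells (2×10^4/well) switched to 0.5% FBS medium, treated with compound, then stimulated with IL-1β at 1 ng/ml final for 18 h. Supernatant PGE2 measured by EIA; suppression ratio calculated against stimulated and unstimulated wells.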

[2] = tested on: PGD2 production from IgE-stimulated RBL-2H3 cells; assay: Suppressing action on PGD2 production from IgE-stimulated RBL-2H3 cells; format: cell-based; conditions: Rattus norvegicus, 10 min, IgE/DNP-BSA stimulated RBL-2H3 cells, read-out: PGD2 production suppression ratio
Source text: (§1) 2. Suppressing Action on PGD2 and LTB4 Production from IgE-Stimulated RBL-2H3 Cells
(§2) Suppressing action on PGD2 and LTB4 production caused by IgE as an allergic stimulant was investigated by the following method. Cells of RBL-2H3, which is a rat mastocytoma cell line (purchased from ATCC), were suspended in DEMEM medium (GIBCO) containing 10% fetal bovine serum (BioFluid), inoculated to each well of 48-well culture plate at a density of 2×10^4 cells/well and cultured overnight. Then, IgE antiserum directed to dinitrophenylated BSA (henceforth DNP-BSA) was further added to each well, and the cells were cultured for 30 minutes. Then, the medium was changed to DEMEM medium containing 0.5% fetal bovine serum, a test compound was added with each well, and DNP-BSA was further added at a final concentration of 100 ng/ml as a stimulant. Ten minutes after the stimulant was added, the culture supernatant was collected, and the PGD2 concentration and LTB4 concentration in the culture supernatant were measured by using EIA kit (CAYMAN). By using a well which was not added with the stimulant as a negative control and a well which was added only with the stimulant as a positive control, suppressing ratios on mediator production were calculated from the production amounts of the mediators in the well added with the test compound using the following equation. PGD2 or LTB4 production suppression ratio=[1−(C−B)/(A−B)]×100 • A: PGD2 or LTB4 production amount of positive control • B: PGD2 or LTB4 production amount of negative control • C: PGD2 or LTB4 production amount in well added with test compound
(§3) Further, as control compounds for comparison, reference compound (1), 3-(2-cyclohexylmethyloxy-1,1′-biphenyl-5-yl)propionic acid described in WO99/19291, reference compounds (2) and (3), [2-(5,6,7,8-tetrahydro-5,5,8,8-tetramethyl-2-naphthalenyl)methyloxy-1,1′-biphenyl-5-yl]carboxylic acid [reference compound (2)] and 3-[3′-carboxy-2-(5,6,7,8-tetrahydro-5,5,8,8-tetramethyl-2naphthalenyl)methyloxy-1,1′-biphenyl-6-yl]propionic acid [reference compound (3)] described in U.S. Pat. No. 5,391,817 and Japanese Patent Unexamined Publication (Kokai) No. 7-22399, respectively, were used, and activities thereof were similarly measured.

[3] = tested on: zymosan-stimulated footpad edema; assay: Mouse zymosan-stimulated footpad edema reaction; format: in vivo; conditions: ICR female mice, oral 0.1 to 500 mg/kg, compared with positive control group
Protocol: 3. Suppressing Effect on Mouse Zymosan-stimulated Footpad Edema Reaction A suppressing effect on footpad edema caused by zymosan as an inflammatory stimulant was studied by the following method. Groups of ICR female mice (6- to 7-week old) each consisting of eight mice were used for the test. A test compound was suspended or dissolved in purified water containing 0.5% methylcellulose and orally administered to the test animals at 0.1 to 500 mg/0.2 ml/kg. To the control group, purified water containing 0.5% methylcellulose was administered in a similar manner, which was not added with a test compound. One hour after the administration of the test compound, 0.02 ml of a suspension of zymosan suspended in physiological saline (Otsuka Pharmaceutical) at 1 mg/ml was subcutaneously administered to right hind leg footpad of each mouse. One and two hours after the administration of the zymosan suspension, volume of the right hind leg footpad was measured by using an apparatus for measuring a volume of mouse hind leg footpad edema (Unicom). A difference of the volume of footpad measured above and the footpad volume before the administration of the test compound measured beforehand was regarded as a volume of the edema. For the volume of the edema at 1 hour or 2 hours after the zymosan administration, a graph was prepared by indicating time in abscissa and the edema volume in ordinate, and an edema volume AUC (area under the curve) was obtained up to 2 hours by calculation using the following equation. Edema volume AUC (1·hour)=1/2×1×A+1×(A+B)/2 • A: Edema volume 1 hour after zymosan administration • B: Edema volume 2 hour after zymosan administration A suppression ratio on edema of test compound was obtained by calculation using the following equation. Edema suppression ratio (%)=[1−B/A]×100 • A: Edema volume AUC of positive control • B: Edema volume AUC of test compound administered group (2) Measurement Results

[4] = tested on: LTB4 production from IgE-stimulated RBL-2H3 cells; assay: Suppressing action on LTB4 production from IgE-stimulated RBL-2H3 cells; format: cell-based; conditions: Rattus norvegicus, 10 min, IgE/DNP-BSA stimulated RBL-2H3 cells, read-out: LTB4 production suppression ratio
Source text: as §1, §2, §3

Row | Compound | inhibition at 0.4 µM [1] [%] | inhibition at 0.4 µM [2] [%] | suppression of footpad edema caused by zymosan [3] | inhibition at 0.4 µM [4] [%]
1 | Cn1ccc2cc(-c3cc(CCC(=O)O)ccc3OCC3CCCC3)ccc21 [Compound 235, 3-[4-cyclopentylmethyloxy-3-(1-methyl-1H-indol-5-yl)phenyl]propionic acid] | ≥ 50 | ≥ 50 | suppressed footpad edema | ≥ 50
2 | O=C(O)CCc1ccc(OCC2CCCC2)c(-c2ccc3cc(O)ccc3c2)c1 [Compound 004, 3-[4-cyclopentylmethyloxy-3-(6-hydroxynaphthalen-2-yl)phenyl]propionic acid] | ≥ 50 | ≥ 50 | suppressed footpad edema | ≥ 50
3 | COC(=O)CCc1ccc(OCC2CCCC2)c(-c2ccc3[nH]ccc3c2)c1 [Compound 099, methyl 3-[4-cyclopentylmethyloxy-3-(1H-indol-5-yl)phenyl]propionate] | ≥ 50 | ≥ 50 | suppressed footpad edema | ≥ 50
4 | O=C(O)CCc1ccc(OCC2CCCC2)c(-c2ccc3cc(NCCO)ccc3c2)c1 [Compound 075, 3-{4-cyclopentylmethyloxy-3-[6-(2-hydroxyethylamino)naphthalen-2-yl]phenyl}propionic acid] | ≥ 50 | ≥ 50 | – | ≥ 50
5 | CN(C)c1cc(CCC(=O)O)cc(-c2ccc3c(cnn3C)c2)c1OC1Cc2ccccc2C1 [Compound 586, 3-[4-(indan-2-yloxy)-3-(N,N-dimethylamino)-5-(1-methyl-1H-indazol-5-yl)phenyl]propionic acid] | ≥ 50 | ≥ 50 | – | ≥ 50
6 | O=C(O)CCc1ccc(OCC2CCCCC2)c(-c2ccc3ccccc3c2)c1 [Compound 066, 3-[4-cyclohexylmethyloxy-3-(naphthalen-2-yl)phenyl]propionic acid] | ≥ 50 | ≥ 50 | suppressed footpad edema | ≥ 50
7 | O=C(O)CCc1ccc(OCc2ccc(Cl)cc2Cl)c(-c2ccc3[nH]ccc3c2)c1 [Compound 162, 3-[4-(2,4-dichlorophenylmethyloxy)-3-(1H-indol-5-yl)phenyl]propionic acid] | ≥ 50 | ≥ 50 | – | ≥ 50
8 | O=C(O)CCc1ccc(OCc2ccccc2Cl)c(-c2ccc3[nH]ccc3c2)c1 [Compound 148, 3-[4-(2-chlorophenylmethyloxy)-3-(1H-indol-5-yl)phenyl]propionic acid] | ≥ 50 | ≥ 50 | suppressed footpad edema | ≥ 50
9 | O=C(O)CCc1ccc(OCC2CCCC2)c(-c2ccc3c(O)cccc3c2)c1 [Compound 010, 3-[4-cyclopentylmethyloxy-3-(5-hydroxynaphthalen-2-yl)phenyl]propionic acid] | ≥ 50 | ≥ 50 | suppressed footpad edema | ≥ 50
10 | O=C(O)CCc1ccc(OCc2ccc(-c3ccccc3)cc2)c(-c2ccc3[nH]ccc3c2)c1 [Compound 179, 3-{4-[(biphenyl-4-yl)methyloxy]-3-(1H-indol-5-yl)phenyl}propionic acid] | ≥ 50 | ≥ 50 | suppressed footpad edema | ≥ 50
11 | Nc1cc(CCC(=O)O)cc(-c2ccc3[nH]ncc3c2)c1OC1Cc2ccccc2C1 [Compound 486, 3-[3-amino-4-(indan-2-yloxy)-5-(1H-indazol-5-yl)phenyl]propionic acid] | ≥ 50 | ≥ 50 | – | ≥ 50
12 | Nc1nc2ccc(-c3cc(CCC(=O)O)ccc3OCC3CCCC3)cc2s1 [Compound 287, 3-[3-(2-aminobenzothiazol-6-yl)-4-cyclopentylmethyloxyphenyl]propionic acid] | ≥ 50 | ≥ 50 | – | ≥ 50
13 | Nc1nc2ccc(-c3cc(CCC(=O)O)ccc3OC3CCCCC3)cc2s1 [Compound 295, 3-[3-(2-aminobenzothiazol-6-yl)-4-cyclohexyloxyphenyl]propionic acid] | ≥ 50 | ≥ 50 | suppressed footpad edema | ≥ 50
14 | O=C(O)CCc1ccc(OC2CCCCC2)c(-c2ccc3[nH]ccc3c2)c1 [Compound 104, 3-[4-cyclohexyloxy-3-(1H-indol-5-yl)phenyl]propionic acid] | ≥ 50 | ≥ 50 | suppressed footpad edema | ≥ 50
15 | O=C(O)CCc1cc(F)c(OC2CCCC2)c(-c2ccc3[nH]ncc3c2)c1 [Compound 481, 3-[4-cyclopentyloxy-3-fluoro-5-(1H-indazol-5-yl)phenyl]propionic acid] | ≥ 50 | ≥ 50 | – | ≥ 50
16 | O=C(O)CCc1ccc(OC2CCCCC2)c(-c2ccc3ccccc3c2)c1 [Compound 045, 3-[4-cyclohexyloxy-3-(naphthalen-2-yl)phenyl]propionic acid] | ≥ 50 | ≥ 50 | – | ≥ 50
17 | CCn1ccc2cc(-c3cc(CCC(=O)O)ccc3OCc3ccccc3Cl)ccc21 [Compound 250, 3-[4-(2-chlorophenylmethyloxy)-3-(1-ethyl-1H-indol-5-yl)phenyl]propionic acid] | ≥ 50 | ≥ 50 | – | ≥ 50
18 | CCCCOc1ccc(COc2ccc(CCC(=O)OC)cc2-c2ccc3[nH]ccc3c2)cc1 [Compound 185, methyl 3-{4-[4-(butyloxy)phenylmethyloxy]-3-(1H-indol-5-yl)-phenyl}propionate] | – | ≥ 50 | suppressed footpad edema | ≥ 50
19 | O=C(O)CCc1ccc(OCCc2cccc(Cl)c2)c(-c2ccc3[nH]ccc3c2)c1 [Compound 211, 3-{4-[2-(3-chlorophenyl)ethyloxy]-3-(1H-indol-5-yl)phenyl}propionic acid] | ≥ 50 | ≥ 50 | – | ≥ 50
20 | Cn1ncc2cc(-c3cc(CCC(=O)O)cc(O)c3OC3Cc4ccccc4C3)ccc21 [Compound 569, 3-[4-(indan-2-yloxy)-3-hydroxy-5-(1-methyl-1H-indazol-5-yl)phenyl]propionic acid] | ≥ 50 | ≥ 50 | – | ≥ 50
